Laboratory results from ChEMBL document CHEMBL5523673, “Progress in the controllability technology of PROTAC” (Eur J Med Chem, 2024).

Legend:
[1] = target: T1, von Hippel-Lindau disease tumor suppressor/Bromodomain-containing protein 4 (Homo sapiens, UniProt O60885+P40337); assay: PROTAC activity at human VHL/BRD4 in human HeLa cells assessed as maximal degradation of BRD4 incubated for 24 hrs by Western blot analysis relative to control; assay type: cell-based
[2] = Antiproliferative activity against human HFF-1 cells assessed as reduction in cell viability incubated for 72 hrs by CCK-8 assay; assay type: toxicity, cell-based
T47D = assay: Antiproliferative activity against human T47D cells assessed as reduction in cell viability incubated for 72 hrs by CCK-8 assay; assay type: functional, cell-based
OVCAR-8 = assay: Antiproliferative activity against human OVCAR-8 cells assessed as reduction in cell viability incubated for 72 hrs by CCK-8 assay; assay type: functional, cell-based; conditions: OVCAR-8, 72 h
[3] = Antiproliferative activity against mouse 3T3 cells assessed as reduction in cell viability incubated for 72 hrs by CCK-8 assay; assay type: toxicity, cell-based; conditions: NIH3T3 cells
[4] = Antiproliferative activity against human HK-2 cells assessed as reduction in cell viability incubated for 72 hrs by CCK-8 assay; assay type: toxicity, cell-based
[5] = target: Epidermal growth factor receptor (Homo sapiens, UniProt P00533); assay: Inhibition of EGFR (unknown origin)
Epidermal growth factor receptor, sequence (P00533 whole entry): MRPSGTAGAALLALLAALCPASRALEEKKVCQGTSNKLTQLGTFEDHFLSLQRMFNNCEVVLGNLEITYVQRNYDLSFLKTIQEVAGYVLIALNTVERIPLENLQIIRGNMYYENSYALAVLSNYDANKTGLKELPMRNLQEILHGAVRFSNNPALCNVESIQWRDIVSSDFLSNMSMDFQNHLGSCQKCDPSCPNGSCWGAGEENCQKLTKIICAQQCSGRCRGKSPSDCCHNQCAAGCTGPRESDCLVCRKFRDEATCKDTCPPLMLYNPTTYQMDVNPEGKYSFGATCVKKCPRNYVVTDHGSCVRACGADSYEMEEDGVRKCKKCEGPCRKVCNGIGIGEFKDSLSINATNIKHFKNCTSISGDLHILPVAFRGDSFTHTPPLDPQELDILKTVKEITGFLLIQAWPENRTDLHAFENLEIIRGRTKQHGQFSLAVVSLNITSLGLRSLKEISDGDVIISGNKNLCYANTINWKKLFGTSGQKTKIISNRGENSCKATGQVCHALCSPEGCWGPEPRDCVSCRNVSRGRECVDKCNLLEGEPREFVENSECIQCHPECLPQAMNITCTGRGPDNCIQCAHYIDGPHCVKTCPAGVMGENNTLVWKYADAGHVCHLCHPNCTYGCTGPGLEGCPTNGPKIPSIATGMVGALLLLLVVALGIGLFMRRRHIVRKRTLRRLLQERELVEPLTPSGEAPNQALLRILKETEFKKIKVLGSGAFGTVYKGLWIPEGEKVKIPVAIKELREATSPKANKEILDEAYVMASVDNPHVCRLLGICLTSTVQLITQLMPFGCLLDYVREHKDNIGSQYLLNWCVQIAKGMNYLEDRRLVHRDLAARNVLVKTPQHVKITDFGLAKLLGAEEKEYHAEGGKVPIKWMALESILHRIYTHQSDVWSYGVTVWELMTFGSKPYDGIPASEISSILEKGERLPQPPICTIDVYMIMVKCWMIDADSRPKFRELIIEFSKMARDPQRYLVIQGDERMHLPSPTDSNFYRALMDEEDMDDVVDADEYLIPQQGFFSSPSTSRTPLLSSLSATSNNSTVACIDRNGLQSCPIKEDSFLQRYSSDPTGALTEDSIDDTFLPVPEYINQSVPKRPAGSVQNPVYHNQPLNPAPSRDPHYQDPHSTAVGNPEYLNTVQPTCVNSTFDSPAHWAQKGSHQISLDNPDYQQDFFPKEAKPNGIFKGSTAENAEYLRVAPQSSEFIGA

[6] = target: Protein cereblon/Bromodomain-containing protein 4 (Homo sapiens) (UniProt O60885+Q96SW2); assay: PROTAC activity at CRBN/BRD4 in human NAMALVA cells assessed as maximal degradation at 1 uM incubated for 30 mins by Western blot analysis relative to control; assay type: cell-based
Protein cereblon/Bromodomain-containing protein 4 (Homo sapiens), sequence (Q96SW2 whole entry, looked up, other chains not shown): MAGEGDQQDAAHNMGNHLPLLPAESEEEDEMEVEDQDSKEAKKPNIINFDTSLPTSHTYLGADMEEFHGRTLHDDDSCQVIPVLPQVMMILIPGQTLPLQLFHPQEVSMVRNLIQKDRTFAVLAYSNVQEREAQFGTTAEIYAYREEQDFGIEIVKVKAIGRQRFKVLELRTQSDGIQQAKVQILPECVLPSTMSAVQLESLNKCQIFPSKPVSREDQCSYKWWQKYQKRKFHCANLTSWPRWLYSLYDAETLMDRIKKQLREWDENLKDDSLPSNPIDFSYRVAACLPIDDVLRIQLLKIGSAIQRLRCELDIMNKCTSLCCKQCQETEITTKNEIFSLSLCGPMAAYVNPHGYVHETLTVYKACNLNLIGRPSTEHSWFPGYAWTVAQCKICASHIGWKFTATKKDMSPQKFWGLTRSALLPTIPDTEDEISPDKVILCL

[7] = target: T1, von Hippel-Lindau disease tumor suppressor/Bromodomain-containing protein 4; assay: PROTAC activity at VHL/BRD4 in human MCF7 cells assessed as induction of BRD4 degradation incubated for 18 hrs by Western blotting analysis; assay type: cell-based
MCF7 [8] = assay: Cytotoxicity against human MCF7 cells assessed as reduction in cell growth incubated for 72 hrs by CellTiter-Glo luminescent assay; assay type: functional, cell-based; conditions: MCF7, 72 h
[9] = target: T1, von Hippel-Lindau disease tumor suppressor/Bromodomain-containing protein 4; assay: PROTAC activity at human VHL/BRD4 in human MCF7 cells assessed as maximum degradation of BRD4 measured after 18 hrs by Western blot analysis relative to control; assay type: cell-based
MCF7 [10] = assay: Antiproliferative activity against human MCF7 cells assessed as reduction in cell viability incubated for 72 hrs by CellTiter-Glo luminescent assay; assay type: functional, cell-based; conditions: MCF7, 72 h

T1 sequence (P40337 whole entry, looked up, other chains not shown): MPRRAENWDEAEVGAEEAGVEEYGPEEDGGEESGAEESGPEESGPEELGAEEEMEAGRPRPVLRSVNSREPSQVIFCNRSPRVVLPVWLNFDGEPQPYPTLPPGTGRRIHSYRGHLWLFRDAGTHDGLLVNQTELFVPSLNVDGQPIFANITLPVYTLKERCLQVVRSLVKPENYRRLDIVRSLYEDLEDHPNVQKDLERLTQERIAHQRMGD

Structure (SMILES) | IC50 at 72 h [2] | IC50 (T47D) | IC50 (OVCAR-8) | IC50 at 72 h [3] | IC50 at 72 h [4] | IC50 (MCF7 [10]) | further results
Cc1ncsc1-c1ccc([C@H](C)NC(=O)[C@@H]2C[C@@H](OC(=O)Cc3ccc(B4OC(C)(C)C(C)(C)O4)cc3)CN2C(=O)[C@@H](NC(=O)COCCCOCCNC(=O)C[C@@H]2N=C(c3ccc(Cl)cc3)c3c(sc(C)c3C)-n3c(C)nnc32)C(C)(C)C)cc1 | – | – | – | – | – | – | Emax [1]: 70%
Cc1ncsc1-c1ccc([C@H](C)NC(=O)[C@@H]2C[C@@H](OC(=O)CCCCn3cc(CNC(=O)CC[C@H](NC(=O)c4ccc(NCc5cnc6nc(N)[nH]c(=O)c6n5)cc4)C(=O)O)nn3)CN2C(=O)[C@@H](NC(=O)COCCCOCCNC(=O)C[C@@H]2N=C(c3ccc(Cl)cc3)c3c(sc(C)c3C)-n3c(C)nnc32)C(C)(C)C)cc1 | > 10000 nM | 18 nM | 297 nM | 1400 nM | 2100 nM | – | –
COc1cc2ncnc(N(Cc3ccc([N+](=O)[O-])cc3)c3ccc(F)c(Cl)c3)c2cc1OCCOCCOCCOCCC(=O)Nc1cccc2c1CN(C1CCC(=O)NC1=O)C2=O (stereo not drawn) | – | – | – | – | – | – | IC50 [5]: 3560 nM
COc1cc(CN(CCCCNC(=O)COc2cccc3c2C(=O)N(C2CCC(=O)NC2=O)C3=O)C(=O)CC2N=C(c3ccc(Cl)cc3)c3c(sc(C)c3C)-n3c(C)nnc32)c([N+](=O)[O-])cc1OC (stereo not drawn) | – | – | – | – | – | – | Emax [6]: 93%
Cc1sc2c(c1C)C(c1ccc(Cl)cc1)=N[C@@H](CC(=O)NCCCCCN(Cc1ccc(B(O)O)cc1)c1cccc3c1CN(C1CCC(=O)NC1=O)C3=O)c1nnc(C)n1-2 (stereo partly drawn) | – | – | – | – | – | 122 nM | DC50 [7]: 31.2 nM; IC50 (MCF7 [8]): 1020 nM; Emax [9]: 77.5%
Cc1ncsc1-c1ccc([C@H](C)NC(=O)[C@@H]2C[C@@H](O)CN2C(=O)[C@@H](NC(=O)COCCCOCCNC(=O)C[C@@H]2N=C(c3ccc(Cl)cc3)c3c(sc(C)c3C)-n3c(C)nnc32)C(C)(C)C)cc1 | 1100 nM | 13 nM | 215 nM | 210 nM | 160 nM | 120 nM | –
